How the values were obtained:
Assay type in all cases: functional
[1] = Nootropic activity in hippocampus assessed as increase in amplitude of population spikes after 30 mins by long-term potentiation enhancement assay relative to control; parameters: concentration or dose not given beside the values
[2] = Nootropic activity in hippocampus assessed as increase in amplitude of population spikes after 15 mins by long-term potentiation enhancement assay relative to control; parameters: concentration or dose not given beside the values
[3] = Nootropic activity in hippocampus assessed as increase in amplitude of population spikes after 60 mins by long-term potentiation enhancement assay relative to control; parameters: concentration or dose not given beside the values
[4] = Nootropic activity in hippocampus assessed as increase in amplitude of population spikes for > 40 mins by long-term potentiation enhancement assay relative to control

In the case of `CN1C(=O)[C@H](O)[C@H](c2ccccc2)[C@H]1[C@@H](O)c1ccccc1`, the Activity [1] is reported as 10.1%, the Activity [2] is reported as -3% and the Activity [3] is reported as 21.7%.
`CN1C(=O)[C@H](O)[C@H](c2ccccc2)[C@@H]1[C@@H](O)c1ccccc1` showed an Activity [1] of 41.2%, an Activity [2] of 26.2% and an Activity [4] greater than 30%. For the same molecule, the Activity [3] was 105.4%.
Molecule `CN1C(=O)[C@@H](O)[C@@H](c2ccccc2)[C@@H]1[C@@H](O)c1ccccc1` has an Activity [1] of -1.8%, an Activity [2] of -5.9% and an Activity [3] of -5.1%.
Work on `CN1C(=O)[C@H](O)[C@@H](c2ccccc2)[C@@H]1[C@@H](O)c1ccccc1` [(+)NEOCLAUSENAMIDE] yielded an Activity [1] of -29.1%, an Activity [2] of -0.7% and an Activity [3] of -2.5%.
In the case of `CN1C(=O)[C@@H](O)[C@H](c2ccccc2)[C@H]1[C@@H](O)c1ccccc1`, the Activity [1] is reported as -8.1%, the Activity [2] is reported as -9.4% and the Activity [3] is reported as 18.2%.
Molecule `CN1C(=O)[C@@H](O)[C@H](c2ccccc2)[C@@H]1[C@@H](O)c1ccccc1` has an Activity [1] of 38.5%, an Activity [2] of 31.8% and an Activity [3] of 58.1%.
In the case of `CN1C(=O)[C@@H](O)[C@@H](c2ccccc2)[C@@H]1[C@H](O)c1ccccc1`, the Activity [1] is reported as -11.9%, the Activity [2] is reported as -11.5% and the Activity [3] is reported as -15.4%.
Work on `CN1C(=O)[C@@H](O)[C@@H](c2ccccc2)[C@H]1[C@@H](O)c1ccccc1` yielded an Activity [1] of 9.7%, an Activity [2] of 1.7% and an Activity [3] of 9.6%.
For `CN1C(=O)[C@H](O)[C@H](c2ccccc2)[C@@H]1[C@H](O)c1ccccc1`, the Activity [1] was 0.3%, the Activity [2] was 7.2% and the Activity [3] was 5.4%.
For `CN1C(=O)[C@H](O)[C@@H](c2ccccc2)[C@@H]1[C@H](O)c1ccccc1`, the Activity [1] was -5.3%, the Activity [2] was 4.7% and the Activity [3] was -9.4%.
In the case of `CN1C(=O)[C@H](O)[C@@H](c2ccccc2)[C@H]1[C@H](O)c1ccccc1` [(+)CLAUSENAMIDE], the Activity [1] is reported as 10.1%, the Activity [2] is reported as -9.4% and the Activity [3] is reported as 6.4%.
With `CN1C(=O)[C@H](O)[C@@H](c2ccccc2)[C@H]1[C@@H](O)c1ccccc1` the Activity [1] was 47.5%, the Activity [2] was 36% and the Activity [4] was greater than 30%. For the same molecule, the Activity [3] was 107.8%.
For `CN1C(=O)[C@H](O)[C@H](c2ccccc2)[C@H]1[C@H](O)c1ccccc1`, the Activity [1] was 50.9%, the Activity [2] was 35% and the Activity [4] was greater than 30%. The Activity [3] was 92.3%.
In the case of `CN1C(=O)[C@@H](O)[C@H](c2ccccc2)[C@@H]1[C@H](O)c1ccccc1`, the Activity [1] is reported as -8.8%, the Activity [2] is reported as -2.2% and the Activity [3] is reported as 17.3%.
For `CN1C(=O)[C@@H](O)[C@H](c2ccccc2)[C@H]1[C@H](O)c1ccccc1`, the Activity [1] was -34.5% and the Activity [2] was -18.2%.
For `CN1C(=O)[C@@H](O)[C@@H](c2ccccc2)[C@H]1[C@H](O)c1ccccc1`, the Activity [1] was 2.9%, the Activity [2] was -12.7% and the Activity [3] was 22.5%.

Source: ChEMBL document CHEMBL1154398, “Synthesis and activity in enhancing long-term potentiation (LTP) of clausenamide stereoisomers” (2009)
